In brackets after ≈: the same amount, converted by molar mass.
Columns and labels:
Type in all cases: functional
[1] = tested on: Staphylococcus aureus; assay: Antibacterial activity against methicillin-resistant Staphylococcus aureus assessed as bacterial growth inhibition incubated for 24 hrs by CLSI based two serial dilution assay
[2] = tested on: Enterococcus faecalis; assay: Antibacterial activity against Enterococcus faecalis assessed as bacterial growth inhibition incubated for 24 hrs by CLSI based two serial dilution assay
[3] = tested on: Staphylococcus aureus; assay: Antibacterial activity against Staphylococcus aureus assessed as bacterial growth inhibition incubated for 24 hrs by CLSI based two serial dilution assay
[4] = tested on: Staphylococcus aureus; assay: Antibacterial activity against Staphylococcus aureus 25923 assessed as bacterial growth inhibition incubated for 24 hrs by CLSI based two serial dilution assay
[5] = tested on: Staphylococcus aureus; assay: Antibacterial activity against Staphylococcus aureus 29213 assessed as bacterial growth inhibition incubated for 24 hrs by CLSI based two serial dilution assay
[6] = tested on: Klebsiella pneumoniae; assay: Antibacterial activity against Klebsiella pneumoniae assessed as bacterial growth inhibition incubated for 24 hrs by CLSI based two serial dilution assay
[7] = tested on: Escherichia coli; assay: Antibacterial activity against Escherichia coli assessed as bacterial growth inhibition incubated for 24 hrs by CLSI based two serial dilution assay
[8] = tested on: Escherichia coli; assay: Antibacterial activity against Escherichia coli 25922 assessed as bacterial growth inhibition incubated for 24 hrs by CLSI based two serial dilution assay
[9] = tested on: Pseudomonas aeruginosa; assay: Antibacterial activity against Pseudomonas aeruginosa assessed as bacterial growth inhibition incubated for 24 hrs by CLSI based two serial dilution assay
[10] = tested on: Pseudomonas aeruginosa; assay: Antibacterial activity against Pseudomonas aeruginosa ATCC 27853 assessed as bacterial growth inhibition incubated for 24 hrs by CLSI based two serial dilution assay
[11] = tested on: Acinetobacter baumannii; assay: Antibacterial activity against Acinetobacter baumannii assessed as bacterial growth inhibition incubated for 24 hrs by CLSI based two serial dilution assay
[12] = tested on: Candida albicans; assay: Antifungal activity against Candida albicans assessed as inhibition of fungal growth incubated for 24 hrs by CLSI based two serial dilution assay
[13] = tested on: Candida albicans; assay: Antifungal activity against Candida albicans ATCC 90023 assessed as inhibition of fungal growth incubated for 24 hrs by CLSI based two serial dilution assay
[14] = tested on: Candida tropicalis; assay: Antifungal activity against Candida tropicalis assessed as inhibition of fungal growth incubated for 24 hrs by CLSI based two serial dilution assay
[15] = tested on: Candida parapsilosis; assay: Antifungal activity against Candida parapsilosis ATCC 22019 assessed as inhibition of fungal growth incubated for 24 hrs by CLSI based two serial dilution assay; settings: Lodderomyces parapsilosis
[16] = tested on: Aspergillus fumigatus; assay: Antifungal activity against Aspergillus fumigatus assessed as inhibition of fungal growth incubated for 24 hrs by CLSI based two serial dilution assay

| SMILES | MIC [1] | MIC [2] | MIC [3] | MIC [4] | MIC [5] | MIC [6] | MIC [7] | MIC [8] | MIC [9] | MIC [10] | MIC [11] | MIC [12] | MIC [13] | MIC [14] | MIC [15] | MIC [16] |
| --- | --- | --- | --- | --- | --- | --- | --- | --- | --- | --- | --- | --- | --- | --- | --- | --- |
| CCCCCCCCCCCCN1C(=O)/C(=N\Nc2nccs2)c2ccccc21 | 128 µM (≈ 52.8 µg/mL) | 4 µM (≈ 1.65 µg/mL) | 32 µM (≈ 13.2 µg/mL) | 4 µM (≈ 1.65 µg/mL) | 4 µM (≈ 1.65 µg/mL) | 32 µM (≈ 13.2 µg/mL) | 64 µM (≈ 26.4 µg/mL) | 32 µM (≈ 13.2 µg/mL) | 16 µM (≈ 6.6 µg/mL) | 16 µM (≈ 6.6 µg/mL) | 64 µM (≈ 26.4 µg/mL) | 32 µM (≈ 13.2 µg/mL) | 128 µM (≈ 52.8 µg/mL) | 16 µM (≈ 6.6 µg/mL) | 64 µM (≈ 26.4 µg/mL) | 32 µM (≈ 13.2 µg/mL) |
| CCCCN1C(=O)/C(=N\Nc2nc(C)c(C(C)=O)s2)c2ccccc21 | 512 µM (≈ 183 µg/mL) | 512 µM (≈ 183 µg/mL) | 16 µM (≈ 5.7 µg/mL) | 512 µM (≈ 183 µg/mL) | 16 µM (≈ 5.7 µg/mL) | 512 µM (≈ 183 µg/mL) | 512 µM (≈ 183 µg/mL) | 512 µM (≈ 183 µg/mL) | 16 µM (≈ 5.7 µg/mL) | 512 µM (≈ 183 µg/mL) | 512 µM (≈ 183 µg/mL) | 512 µM (≈ 183 µg/mL) | 512 µM (≈ 183 µg/mL) | 512 µM (≈ 183 µg/mL) | 512 µM (≈ 183 µg/mL) | 512 µM (≈ 183 µg/mL) |
| O=C1/C(=N\Nc2nccs2)c2ccccc2N1Cc1ccccc1Cl | 8 µM (≈ 2.95 µg/mL) | 32 µM (≈ 11.8 µg/mL) | 8 µM (≈ 2.95 µg/mL) | 64 µM (≈ 23.6 µg/mL) | 64 µM (≈ 23.6 µg/mL) | 512 µM (≈ 189 µg/mL) | 256 µM (≈ 94.4 µg/mL) | 256 µM (≈ 94.4 µg/mL) | 32 µM (≈ 11.8 µg/mL) | 512 µM (≈ 189 µg/mL) | 512 µM (≈ 189 µg/mL) | 16 µM (≈ 5.9 µg/mL) | 4 µM (≈ 1.48 µg/mL) | 16 µM (≈ 5.9 µg/mL) | 4 µM (≈ 1.48 µg/mL) | 16 µM (≈ 5.9 µg/mL) |
| CCN1C(=O)/C(=N\Nc2nccs2)c2ccccc21 | 32 µM (≈ 8.71 µg/mL) | 32 µM (≈ 8.71 µg/mL) | 64 µM (≈ 17.4 µg/mL) | 64 µM (≈ 17.4 µg/mL) | 16 µM (≈ 4.36 µg/mL) | 64 µM (≈ 17.4 µg/mL) | 32 µM (≈ 8.71 µg/mL) | 64 µM (≈ 17.4 µg/mL) | 2 µM (≈ 0.545 µg/mL) | 512 µM (≈ 139 µg/mL) | 512 µM (≈ 139 µg/mL) | 64 µM (≈ 17.4 µg/mL) | 128 µM (≈ 34.9 µg/mL) | 64 µM (≈ 17.4 µg/mL) | 64 µM (≈ 17.4 µg/mL) | 32 µM (≈ 8.71 µg/mL) |
| CCCCN1C(=O)/C(=N\Nc2nccs2)c2cccc(F)c21 | 4 µM (≈ 1.27 µg/mL) | 2 µM (≈ 0.637 µg/mL) | 16 µM (≈ 5.09 µg/mL) | 1 µM (≈ 0.318 µg/mL) | 16 µM (≈ 5.09 µg/mL) | 1 µM (≈ 0.318 µg/mL) | 4 µM (≈ 1.27 µg/mL) | 1 µM (≈ 0.318 µg/mL) | 1 µM (≈ 0.318 µg/mL) | 1 µM (≈ 0.318 µg/mL) | 0.5 µM (≈ 0.159 µg/mL) | 32 µM (≈ 10.2 µg/mL) | 4 µM (≈ 1.27 µg/mL) | 1 µM (≈ 0.318 µg/mL) | 4 µM (≈ 1.27 µg/mL) | 256 µM (≈ 81.5 µg/mL) |
